# Data from article PMC6954902 (Protein & Cell, 2019).
# Key:
# [1] = molecular target: T1, MtEccC3-ATPase3 (Mycobacterium tuberculosis, UniProt P9WNA9)
# T1 construct: gene eccC3
# [2] = molecular target: T2, MtEccC5-ATPase3 (Mycobacterium tuberculosis, UniProt P9WNA5)
# T2 construct: gene eccC5
# [3] = molecular target: T3, MtEccC2-ATPase3 (Mycobacterium tuberculosis, UniProt O05450)
# T3 construct: gene eccC2
# T3 sequence (O05450 1127-1396 limits assumed): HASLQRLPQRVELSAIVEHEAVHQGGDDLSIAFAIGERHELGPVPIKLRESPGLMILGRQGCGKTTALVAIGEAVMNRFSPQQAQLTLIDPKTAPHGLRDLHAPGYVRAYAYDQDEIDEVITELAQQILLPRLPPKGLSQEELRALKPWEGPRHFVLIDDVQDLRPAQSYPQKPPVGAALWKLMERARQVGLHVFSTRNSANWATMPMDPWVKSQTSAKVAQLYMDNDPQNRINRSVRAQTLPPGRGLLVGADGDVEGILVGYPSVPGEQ
# T2 sequence (P9WNA5 1125-1391): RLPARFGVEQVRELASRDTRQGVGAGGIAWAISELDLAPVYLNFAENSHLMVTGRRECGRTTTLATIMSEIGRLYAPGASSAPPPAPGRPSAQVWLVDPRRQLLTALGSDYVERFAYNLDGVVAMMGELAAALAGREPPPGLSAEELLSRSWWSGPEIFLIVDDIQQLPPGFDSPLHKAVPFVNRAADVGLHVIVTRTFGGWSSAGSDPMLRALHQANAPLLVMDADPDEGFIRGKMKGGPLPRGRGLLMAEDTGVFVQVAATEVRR
# T1 sequence (P9WNA9 1060-1330): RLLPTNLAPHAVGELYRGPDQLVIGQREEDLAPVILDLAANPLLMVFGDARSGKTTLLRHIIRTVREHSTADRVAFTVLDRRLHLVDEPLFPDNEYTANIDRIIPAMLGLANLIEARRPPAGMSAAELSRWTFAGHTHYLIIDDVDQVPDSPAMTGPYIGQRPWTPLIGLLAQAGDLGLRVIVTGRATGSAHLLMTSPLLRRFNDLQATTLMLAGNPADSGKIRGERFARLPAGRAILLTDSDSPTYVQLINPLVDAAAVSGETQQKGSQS
structure (smiles),measurement,setting,value
Nc1ncnc2c1ncn2[C@@H]1O[C@H](COP(=O)(O)OP(=O)(O)OP(=O)(O)O)[C@@H](O)[C@H]1O [ATP],X-ray crystal structure,[1],"In our structures, ATP and a magnesium ion bind to the nucleotide-binding site"
same,X-ray crystal structure,[2],"In our structures, ATP and a magnesium ion bind to the nucleotide-binding site"
same,X-ray crystal structure,[3],"In our structures, ATP and a magnesium ion bind to the nucleotide-binding site"
